Results as given in PubChem BioAssay (NCI).
Several values for one entry are separate records, joined by “and”; a condition that tells them apart may be missing. Equal values may be shown once.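 Grown in 96-well plates, cells were treated for 48 hours with each compound at five concentrations. Insufficient inhibition: endpoint recorded as highest concentration tested. The concentration for 50% growth inhibition is given as GI50. At the TGI there is no net growth.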

Key:
Assay in all cases: DTP human tumour cell line panel, 48 h
NCI/ADR-RES ovarian = test system: NCI/ADR-RES ovarian
SF-539 CNS = test system: SF-539 CNS
HCT-116 colon = test system: HCT-116 colon
OVCAR-5 ovarian = test system: OVCAR-5 ovarian
UACC-62 melanoma = test system: UACC-62 melanoma
NCI-H23 lung = test system: NCI-H23 lung
DU-145 prostate = test system: DU-145 prostate
UO-31 renal = test system: UO-31 renal
SF-295 CNS = test system: SF-295 CNS
OVCAR-4 ovarian = test system: OVCAR-4 ovarian
RPMI-8226 leukemia = test system: RPMI-8226 leukemia
CAKI-1 renal = test system: CAKI-1 renal
PC-3 prostate = test system: PC-3 prostate
HOP-62 NSCLC = test system: HOP-62 NSCLC
SK-MEL-28 melanoma = test system: SK-MEL-28 melanoma
OVCAR-8 ovarian = test system: OVCAR-8 ovarian

With `O=CC(NC(=O)N(CCCl)N=O)C(O)C(O)C(O)CO` (centres undefined) the GI50 (NCI/ADR-RES ovarian) was 499 µM and > 1250 µM, the TGI (NCI/ADR-RES ovarian) was 625 µM and > 1250 µM and the GI50 (SF-539 CNS) was 40 µM and 255 µM. For the same compound, the TGI (SF-539 CNS) was 483 µM and > 1250 µM and 614 µM, the GI50 (HCT-116 colon) was 302 µM and 1030 µM and 467 µM and the TGI (HCT-116 colon) was 625 µM and > 1250 µM and > 992 µM. It also gave a GI50 (OVCAR-5 ovarian) greater than 625 µM, a TGI (OVCAR-5 ovarian) greater than 1250 µM and a GI50 (UACC-62 melanoma) of 18.5 µM. For the same compound, the TGI (UACC-62 melanoma) was 185 µM and > 1250 µM and 939 µM, the GI50 (NCI-H23 lung) was 233 µM and > 1250 µM and the TGI (NCI-H23 lung) was 625 µM and > 1250 µM. The TGI (DU-145 prostate) was greater than 1250 µM, the TGI (UO-31 renal) was greater than 1250 µM and the GI50 (SF-295 CNS) was 31.5 µM. For the same compound, the TGI (SF-295 CNS) was 625 µM and 764 µM, the GI50 (OVCAR-4 ovarian) was greater than 625 µM and the TGI (OVCAR-4 ovarian) was greater than 1250 µM. For the same compound, the GI50 (RPMI-8226 leukemia) was 497 µM and > 1250 µM, the TGI (RPMI-8226 leukemia) was 625 µM and > 1250 µM and the GI50 (CAKI-1 renal) was 269 µM. The TGI (CAKI-1 renal) was 625 µM and > 1250 µM, the TGI (PC-3 prostate) was greater than 1250 µM and the GI50 (HOP-62 NSCLC) was 115 µM. For the same compound, the TGI (HOP-62 NSCLC) was 536 µM and 422 µM, the GI50 (SK-MEL-28 melanoma) was greater than 1250 µM and the TGI (SK-MEL-28 melanoma) was greater than 1250 µM. The GI50 (OVCAR-8 ovarian) was > 625 µM and 587 µM and the TGI (OVCAR-8 ovarian) was greater than 1250 µM.
